This is an account of results in patent US20260042772A1, “FURO PYRIMIDINE DERIVATES” (Merck Patent GmbH, priority 2022, published 2026).

The test system of the first test is chloroquine sensitive (CQS) strain (NF54) of P. falciparum. Put plainly: In vitro antiplasmodial activity, Assay A (parasite lactate dehydrogenase assay). Format: cell-based. The conditions noted are these: Plasmodium falciparum. On the procedure:
Test samples were screened for in vitro antiplasmodial activity against a chloroquine sensitive (CQS) strain (NF54) of the malaria parasite P. falciparum. Continuous in vitro cultures of asexual erythrocyte stages of P. falciparum were maintained using a modified version of the method of Trager and Jensen (1976).1 Quantitative assessment of antiplasmodial activity in vitro was determined via the parasite lactate dehydrogenase assay using a modified method described by Makler (1993). The test samples were tested in triplicate on two separate occasions. Further dilutions were prepared in complete medium on the day of the experiment. Samples were tested as a suspension if not completely dissolved. Chloroquine and artesunate were used as the reference drugs. A full dose-response were performed starting at a concentration of 3000 nM, which is then serially diluted 2-fold in complete medium to give 10 concentrations; with the lowest concentration being approximately 6 nM. The same dilution techniques were used for all samples. References were tested at a starting concentration of 1000 ng/mL. The highest concentration of solvent to which the parasites were exposed has no measurable effect on the parasite viability (data not shown).
In general, IC50 refers to the concentration that gives 50% inhibition. A high value points to weaker potency. Take `Cn1cc(-c2cc3ncnc(-c4cccc(S(=O)(=O)C5CC5)c4)c3o2)ccc1=O` [Compound D22, 5-(4-(3-(cyclopropylsulfonyl)phenyl)furo[3,2-d]pyrimidin-6-yl)-1-methylpyridin-2(1H)-one]: the IC50 was greater than 50 nM.
Still for that read-out and setting: the result for `CC(C)(C)OC(=O)c1ccc(-c2cc3ncnc(-c4ccnc(C(C)(C)O)c4)c3o2)cc1` [Compound D162, tert-butyl 4-(4-(2-(2-hydroxypropan-2-yl)pyridin-4-yl)furo[3,2-d]pyrimidin-6-yl)benzoate] reads less than 15 nM.
On the same count and under the same terms, the result for `COC(=O)c1cccc(-c2cc3ncnc(-c4ccnc(C(C)(C)O)c4)c3o2)c1` [Compound D163, methyl 3-(4-(2-(2-hydroxypropan-2-yl)pyridin-4-yl)furo[3,2-d]pyrimidin-6-yl)benzoate] reads less than 15 nM; that for `CC(C)(O)c1cc(-c2ncnc3cc(-c4cccc(C(=O)O)c4)oc23)ccn1` [Compound D164, 3-(4-(2-(2-hydroxypropan-2-yl)pyridin-4-yl)furo[3,2-d]pyrimidin-6-yl)benzoic acid], less than 15 nM; that for `CC(C)(O)c1cc(F)cc(-c2ncnc3cc(-c4ccc(C(=O)N5CCOCC5)cc4)oc23)c1` [Compound D165, (4-(4-(3-fluoro-5-(2-hydroxypropan-2-yl)phenyl)furo[3,2-d]pyrimidin-6-yl)phenyl)(morpholino) methanone], less than 15 nM.
Still for that read-out and setting: the result for `CC1COCC(C)N1C(=O)c1ccc(-c2cc3ncnc(-c4ccnc(C(C)(C)O)c4)c3o2)cc1` (centres unmarked) [Compound D171, (3,5-dimethylmorpholino)(4-(4-(2-(2-hydroxypropan-2-yl)pyridin-4-yl)furo[3,2-d]pyrimidin-6-yl)phenyl)methanone] reads greater than 50 nM; that for `CC(C)(O)c1cc(F)cc(-c2ncnc3cc(-c4ccc(C(=O)N5C[C@H]6C[C@@H]5CO6)cc4)oc23)c1` [Compound D173, ((1R,4R)-2-oxa-5-azabicyclo[2.2.1]heptan-5-yl)(4-(4-(3-fluoro-5-(2-hydroxypropan-2-yl)phenyl)furo[3,2-d]pyrimidin-6-yl)phenyl)methanone], less than 15 nM; that for `CC(C)(O)c1cc(F)cc(-c2ncnc3cc(-c4ccc(C(=O)N5C[C@@H]6C[C@H]5CO6)cc4)oc23)c1` [Compound D175, ((1S,4S)-2-oxa-5-azabicyclo[2.2.1]heptan-5-yl)(4-(4-(3-fluoro-5-(2-hydroxypropan-2-yl)phenyl)furo[3,2-d]pyrimidin-6-yl)phenyl)methanone], less than 15 nM.
`CC(C)(O)c1cccc(-c2ncnc3cc(-c4ccc(C(=O)N5CCOCC5)cc4)oc23)c1` [Compound P13, (4-(4-(3-(2-hydroxypropan-2-yl)phenyl)furo[3,2-d]pyrimidin-6-yl)phenyl)(morpholino) methanone]: the half-inhibitory concentration (IC50) is greater than 50 nM.

The test system of another test is CQC sensitive strain (NF54) of P. falciparum. Put plainly: In vitro antiplasmodial activity, Assay B (as described by Vennerstrom et al. 2004). Format: cell-based. The conditions noted are these: Plasmodium falciparum; NF54, Vennerstrom et al. method. On the procedure: Compounds were screened against CQC sensitive strain (NF54) of P. falciparum in vitro as described by Vennerstrom et al. (2004). A full dose-response were performed starting at a concentration of 3000 nM, which is then serially diluted 2-fold in complete medium to give 10 concentrations; with the lowest concentration being approximately 6 nM. The same dilution techniques were used for all samples. References were tested at a starting concentration of 1000 ng/mL. The highest concentration of solvent to which the parasites were exposed has no measurable effect on the parasite viability (data not shown).
For the molecule `CC(=O)c1ccc(-c2cc3ncnc(-c4cccc(S(=O)(=O)C5CC5)c4)c3o2)cn1` [Compound P2, 1-(5-(4-(3-(cyclopropylsulfonyl)phenyl)furo[3,2-d]pyrimidin-6-yl)pyridin-2-yl)ethan-1-one], the 50% inhibitory concentration (IC50) was greater than 50 nM.
The same measure, in the same setting: the result for `CS(=O)(=O)c1ccc(-c2cc3ncnc(-c4cccc(C(=O)N5C[C@H]6C[C@@H]5CO6)c4)c3o2)cc1` [Compound P3, ((1R,4R)-2-oxa-5-azabicyclo[2.2.1]heptan-5-yl)(3-(6-(4-(methylsulfonyl)phenyl)furo [3,2-d]pyrimidin-4-yl)phenyl)methanone] reads greater than 50 nM; that for `CS(=O)(=O)c1ccc(-c2cc3ncnc(-c4cccc(C(=O)N5C[C@H]6C[C@@H]5CO6)c4F)c3o2)cc1` [Compound P4, ((1R,4R)-2-oxa-5-azabicyclo[2.2.1]heptan-5-yl)(2-fluoro-3-(6-(4-(methylsulfonyl)phenyl)furo [3,2-d]pyrimidin-4-yl)phenyl)methanone], 15 to 50 nM; that for `CS(=O)(=O)c1ccc(-c2cc3ncnc(-c4cccc(C(=O)N5C[C@@H]6C[C@H]5CO6)c4F)c3o2)cc1` [Compound P5, ((1S,4S)-2-oxa-5-azabicyclo[2.2.1]heptan-5-yl)(2-fluoro-3-(6-(4-(methylsulfonyl)phenyl)furo [3,2-d]pyrimidin-4-yl)phenyl)methanone], 15 to 50 nM.
`CC(C)(O)Cc1cc(-c2ncnc3cc(-c4ccc(S(C)(=O)=O)cc4)oc23)ccn1` [Compound P6, 2-methyl-1-(4-(6-(4-(methylsulfonyl)phenyl)furo [3,2-d]pyrimidin-4-yl)pyridin-2-yl)propan-2-ol] showed an IC50 greater than 50 nM.
The same measure, in the same setting: the result for `CC(C)(O)c1cc(-c2ncnc3cc(-c4ccc(S(C)(=O)=O)cc4)oc23)ccn1` [Compound P7, 2-(4-(6-(4-(methylsulfonyl)phenyl)furo [3,2-d]pyrimidin-4-yl)pyridin-2-yl)propan-2-ol] reads 15 to 50 nM; that for `CN(C)C(=O)c1ccc(-c2cc3ncnc(-c4ccnc(C(C)(C)O)c4)c3o2)cc1` [Compound P8, 4-(4-(2-(2-hydroxypropan-2-yl)pyridin-4-yl)furo[3,2-d]pyrimidin-6-yl)-N,N-dimethylbenzamide], 15 to 50 nM; that for `CN(C)C(=O)c1ccc(-c2cc3ncnc(-c4cccc(C(C)(C)O)c4)c3o2)cc1` [Compound P9, 4-(4-(3-(2-hydroxypropan-2-yl)phenyl)furo[3,2-d]pyrimidin-6-yl)-N,N-dimethylbenzamide], 15 to 50 nM.
On the same count and under the same terms, for `CC(C)(O)c1cc(-c2ncnc3cc(-c4ccc(C(=O)O)cc4)oc23)ccn1` [Compound P10, 4-(4-(2-(2-hydroxypropan-2-yl)pyridin-4-yl)furo[3,2-d]pyrimidin-6-yl)benzoic acid] the value was 15 to 50 nM; for `CC(C)(O)c1cc(-c2ncnc3cc(-c4ccc(C(=O)N5CCOCC5)cc4)oc23)ccn1` [Compound P11, (4-(4-(2-(2-hydroxypropan-2-yl)pyridin-4-yl)furo[3,2-d]pyrimidin-6-yl)phenyl)(morpholino) methanone], less than 15 nM.
On the same count and under the same terms, the result for `CC(C)(O)c1cc(-c2ncnc3cc(-c4ccc(C(=O)N5CC(F)(F)C5)cc4)oc23)ccn1` [Compound P12, (3,3-difluoroazetidin-1-yl)(4-(4-(2-(2-hydroxypropan-2-yl)pyridin-4-yl)furo[3,2-d]pyrimidin-6-yl)phenyl)methanone] reads 15 to 50 nM.
In turn, `CC(C)(O)c1cc(-c2ncnc3cc(-c4ccc(C(=O)N5CCOCC5)cc4)oc23)cc(F)n1` [Compound P14, (4-(4-(2-fluoro-6-(2-hydroxypropan-2-yl)pyridin-4-yl)furo[3,2-d]pyrimidin-6-yl)phenyl)(morpholino) methanone] gave an IC50 of 15 to 50 nM.
Still for that read-out and setting: the result for `C[C@@H]1CN(C(=O)c2ccc(-c3cc4ncnc(-c5ccnc(C(C)(C)O)c5)c4o3)cc2)C[C@@H](C)O1` [Compound P15, ((2R,6R)-2,6-dimethylmorpholino)(4-(4-(2-(2-hydroxypropan-2-yl)pyridin-4-yl)furo[3,2-d]pyrimidin-6-yl)phenyl)methanone] reads less than 15 nM.
Still for that read-out and setting: the result for `C[C@H]1CN(C(=O)c2ccc(-c3cc4ncnc(-c5ccnc(C(C)(C)O)c5)c4o3)cc2)C[C@H](C)O1` [Compound P16, ((2S,6S)-2,6-dimethylmorpholino)(4-(4-(2-(2-hydroxypropan-2-yl)pyridin-4-yl)furo[3,2-d]pyrimidin-6-yl)phenyl)methanone] reads less than 15 nM; that for `CN1CCN(C(=O)c2ccc(-c3cc4ncnc(-c5ccnc(C(C)(C)O)c5)c4o3)cc2)CC1` [Compound P22, (4-(4-(2-(2-hydroxypropan-2-yl)pyridin-4-yl)furo[3,2-d]pyrimidin-6-yl)phenyl)(4-methylpiperazin-1-yl)methanone], less than 15 nM; that for `CC(C)(O)c1cc(-c2ncnc3cc(-c4ccc(S(C)(=N)=O)cc4)oc23)ccn1` (centres unmarked) [Compound P25, (4-(4-(2-(2-hydroxypropan-2-yl)pyridin-4-yl)furo[3,2-d]pyrimidin-6-yl)phenyl)(imino)(methyl)-λ6-sulfanone], 15 to 50 nM.
Still for that read-out and setting: the result for `CC(C)(O)c1cc(-c2ncnc3cc(-c4ccc([S@@](C)(=N)=O)cc4)oc23)ccn1` [Compound P26, (S)-(4-(4-(2-(2-hydroxypropan-2-yl)pyridin-4-yl)furo[3,2-d]pyrimidin-6-yl)phenyl)(imino)(methyl)-λ6-sulfanone] reads 15 to 50 nM.
Turning to `CC(C)(O)c1cc(-c2ncnc3cc(-c4ccc([S@](C)(=N)=O)cc4)oc23)ccn1` [Compound P27, (R)-(4-(4-(2-(2-hydroxypropan-2-yl)pyridin-4-yl)furo[3,2-d]pyrimidin-6-yl)phenyl)(imino)(methyl)-λ6-sulfanone], the half-inhibitory concentration (IC50) was in the range of 15 to 50 nM.
On the same count and under the same terms, the result for `CC(C)(O)c1cccc(-c2ncnc3cc(-c4ccc([S@@](C)(=N)=O)cc4)oc23)c1F` [Compound P29, (S)-(4-(4-(2-fluoro-3-(2-hydroxypropan-2-yl)phenyl)furo[3,2-d]pyrimidin-6-yl)phenyl)(imino)(methyl)-λ6-sulfanone] reads less than 15 nM; that for `CC(C)(O)c1cccc(-c2ncnc3cc(-c4ccc([S@](C)(=N)=O)cc4)oc23)c1F` [Compound P30, (R)-(4-(4-(2-fluoro-3-(2-hydroxypropan-2-yl)phenyl)furo[3,2-d]pyrimidin-6-yl)phenyl)(imino)(methyl)-λ6-sulfanone], less than 15 nM.
